Like-named read-outs stand apart in the source and are kept apart here.
Experiments:
cancer cell lines = experiment: Cell viability analysis (WST-1) on cancer cell lines; type: cell-based, human; details: drug 10 μM, 72 hours, WST-1; Table 3
[1] = tested on: HI650 (Lung Adenocarcinoma); experiment: Cell viability analysis, lung cancer HI650; type: cell-based, human; details: for viability at 10 µM: Homo sapiens
[2] = tested on: A549 (Lung Adenocarcinoma); experiment: Cell viability analysis, lung cancer A549; type: cell-based, human; details: for viability at 10 µM: Homo sapiens, A549
[3] = tested on: AGS (Gastric Adenocarcinoma); experiment: Cell viability analysis, gastric cancer AGS; type: cell-based, human; details: for viability at 10 µM: Homo sapiens
[4] = tested on: MKN-45 (Gastric Adenocarcinoma); experiment: Cell viability analysis, gastric cancer MKN-45; type: cell-based, human; details: for viability at 10 µM: Homo sapiens, MKN-45
[5] = tested on: HepG2 (Hepatocellular Carcinoma); experiment: Cell viability analysis, hepatic cancer HepG2; type: cell-based, human; details: for viability at 10 µM: Homo sapiens, HepG2
[6] = tested on: Hep3B (hepatocellular carcinoma); experiment: Cell viability analysis, hepatic cancer Hep3B; type: cell-based, human
[7] = tested on: LoVo (Colorectal Adenocarcinoma); experiment: Cell viability analysis, colon cancer LoVo; type: cell-based, human; details: for viability at 10 µM: Homo sapiens, LoVo
[8] = tested on: A375 (Amelanotic Melanoma); experiment: Cell viability analysis, skin cancer A375; type: cell-based, human; details: for viability at 10 µM: Homo sapiens
[9] = tested on: BCC (basal cell carcinoma); experiment: Cell viability analysis, skin cancer BCC; type: cell-based, human
[10] = tested on: HeLa (Cervix Adenocarcinoma); experiment: Cell viability analysis, cervical cancer HeLa; type: cell-based, human; details: for viability at 10 µM: Homo sapiens, HeLa
[11] = tested on: C-33A (Cervical carcinoma); experiment: Cell viability analysis, cervical cancer C-33A; type: cell-based, human
[12] = tested on: PC3 (p53−) (Prostate Adenocarcinoma); experiment: Cell viability analysis, prostate cancer PC3; type: cell-based, human; details: for viability at 10 µM: Homo sapiens
[13] = tested on: TSGH-8301 (Urinary Bladder Carcinoma); experiment: Cell viability analysis, bladder cancer TSGH-8301; type: cell-based, human; details: for viability at 10 µM: Homo sapiens
T24 = experiment: Cell viability analysis, bladder cancer T24; type: cell-based, human
[14] = tested on: MCF7 (Mammary Gland, Adenocarcinoma); experiment: Cell viability analysis, breast cancer MCF7; type: cell-based, human; details: for viability at 10 µM: Homo sapiens
[15] = tested on: MDA-MB-231 (Mammary Gland, Adenocarcinoma); experiment: Cell viability analysis, breast cancer MDA-MB-231; type: cell-based, human
BxPC-3 = experiment: Cell viability analysis, pancreatic cancer BxPC-3; type: cell-based, human
AsPC-1 = experiment: Cell viability analysis, pancreatic cancer AsPC-1; type: cell-based, human
NIH: OVCAR-3 = experiment: Cell viability analysis, ovarian cancer NIH: OVCAR-3; type: cell-based, human
TOV-21G = experiment: Cell viability analysis, ovarian cancer TOV-21G; type: cell-based, human
[16] = tested on: SAS (Tongue squamous cell carcinoma); experiment: Cell viability analysis, tongue cancer SAS; type: cell-based, human
U-2OS = experiment: Cell viability analysis, osteosarcoma U-2OS; type: cell-based, human
[17] = tested on: 786-O (Renal adenocarcinoma); experiment: Cell viability analysis, renal cancer 786-O; type: cell-based, human
[18] = tested on: HCT116 (p53+) (Colorectal Carcinoma)
[19] = tested on: HL-60 (Acute Promyelocytic Leukemia); experiment: Cell viability analysis, leukemia HL-60; type: cell-based, human; details: Homo sapiens, HL-60; drug 10 μM, 72 hours, WST-1, OD450 nm; read-out: cell viability (survival rate), HL-60

CC1(C)[C@@H](O[C@H]2O[C@H](C(=O)O)[C@@H](O)[C@H](O)[C@H]2O[C@@H]2O[C@H](C(=O)O)[C@@H](O)[C@H](O)[C@H]2O)CC[C@]2(C)[C@H]3C(=O)C=C4[C@@H]5C[C@@](C)(C(=O)O)CC[C@]5(C)CC[C@@]4(C)[C@]3(C)CC[C@@H]12 [Ammonium Glycyrrhizinate (AMGZ), Ammonium Glycyrrhizinate]
inhibition effect on different cancer cell lines (cancer cell lines): significant inhibition effect
The results of antibiotic drug inhibiting cancer cell lines (cell viability analysis), H1650 [1]: 76.88
The results of antibiotic drug inhibiting cancer cell lines (cell viability analysis), A549 [2]: 83.55
The results of antibiotic drug inhibiting cancer cell lines (cell viability analysis), AGS [3]: 109.2
The results of antibiotic drug inhibiting cancer cell lines (cell viability analysis), MKN-45 [4]: 96.41
The results of antibiotic drug inhibiting cancer cell lines (cell viability analysis), HepG2 [5]: 119.7
The results of antibiotic drug inhibiting cancer cell lines (cell viability analysis), Hep3B [6]: 102.1
The results of antibiotic drug inhibiting cancer cell lines (cell viability analysis), LoVo [7]: 100.4
The results of antibiotic drug inhibiting cancer cell lines (cell viability analysis), A375 [8]: 100.5
The results of antibiotic drug inhibiting cancer cell lines (cell viability analysis), BCC [9]: 93.09
The results of antibiotic drug inhibiting cancer cell lines (cell viability analysis), HeLa [10]: 103.4
The results of antibiotic drug inhibiting cancer cell lines (cell viability analysis), C-33A [11]: 108.4
The results of antibiotic drug inhibiting cancer cell lines (cell viability analysis), PC-3 [12]: 120.7
The results of antibiotic drug inhibiting cancer cell lines (cell viability analysis), TSGH-8301 [13]: 105.2
The results of antibiotic drug inhibiting cancer cell lines (cell viability analysis), T24 (T24): 107.9
The results of antibiotic drug inhibiting cancer cell lines (cell viability analysis), MCF-7 [14]: 69.06
The results of antibiotic drug inhibiting cancer cell lines (cell viability analysis), MDA-MB231 [15]: 98.74
The results of antibiotic drug inhibiting cancer cell lines (cell viability analysis), BxPC-3 (BxPC-3): 102.8
The results of antibiotic drug inhibiting cancer cell lines (cell viability analysis), AsPC-1 (AsPC-1): 100.6
The results of antibiotic drug inhibiting cancer cell lines (cell viability analysis), NIH-OVCAR-3 (NIH: OVCAR-3): 101
The results of antibiotic drug inhibiting cancer cell lines (cell viability analysis), TOV-21G (TOV-21G): 74.39
The results of antibiotic drug inhibiting cancer cell lines (cell viability analysis), SAS [16]: 83.22
The results of antibiotic drug inhibiting cancer cell lines (cell viability analysis), U2OS (U-2OS): 78.97
The results of antibiotic drug inhibiting cancer cell lines (cell viability analysis), 786-O [17]: 102.9
viability [18]: 93.4%

CCC[C@H](NC(=O)[C@@H]1[C@H]2CCC[C@H]2CN1C(=O)[C@@H](NC(=O)[C@@H](NC(=O)c1cnccn1)C1CCCCC1)C(C)(C)C)C(=O)C(=O)NC1CC1 [Telaprevir (VX-950), Telaprevir]
viability at 10 µM ([1]; NCI-H1650, 72 h, H1650, repeated experiment, read-out: The results of antibiotic drug inhibiting cancer cell lines (cell viability analysis), H1650): 107%
viability at 10 µM ([1]; NCI-H1650, drug 10 μM, 72 hours, WST-1, OD450 nm, read-out: cell viability (survival rate), H1650): 51.6%
viability at 10 µM ([2]; 72 h, repeated experiment, read-out: The results of antibiotic drug inhibiting cancer cell lines (cell viability analysis), A549): 80.4%
viability at 10 µM ([2]; drug 10 μM, 72 hours, WST-1, OD450 nm, read-out: cell viability (survival rate), A549): 49.3%
viability at 10 µM ([3]; 72 h, AGS, repeated experiment, read-out: The results of antibiotic drug inhibiting cancer cell lines (cell viability analysis), AGS): 111%
viability at 10 µM ([3]; drug 10 μM, 72 hours, WST-1, OD450 nm, read-out: cell viability (survival rate), AGS): 49.2%
viability at 10 µM ([4]; 72 h, repeated experiment, read-out: The results of antibiotic drug inhibiting cancer cell lines (cell viability analysis), MKN-45): 107%
viability at 10 µM ([4]; drug 10 μM, 72 hours, WST-1, OD450 nm, read-out: cell viability (survival rate), MKN-45): 48%
viability at 10 µM ([5]; 72 h, repeated experiment, read-out: The results of antibiotic drug inhibiting cancer cell lines (cell viability analysis), HepG2): 114%
viability at 10 µM ([5]; drug 10 μM, 72 hours, WST-1, OD450 nm, read-out: cell viability (survival rate), HepG2): 100%
viability at 10 µM ([6]; Homo sapiens, Hep3B, 72 h, read-out: The results of antibiotic drug inhibiting cancer cell lines (cell viability analysis), Hep3B): 121%
viability at 10 µM ([7]; 72 h, repeated experiment, read-out: The results of antibiotic drug inhibiting cancer cell lines (cell viability analysis), LoVo): 87%
viability at 10 µM ([7]; drug 10 μM, 72 hours, WST-1, OD450 nm, read-out: cell viability (survival rate), LoVo): 73.7%
viability at 10 µM ([8]; A-375, 72 h, A375, repeated experiment, read-out: The results of antibiotic drug inhibiting cancer cell lines (cell viability analysis), A375): 105%
viability at 10 µM ([8]; A-375, drug 10 μM, 72 hours, WST-1, OD450 nm, read-out: cell viability (survival rate), A375): 131%
viability at 10 µM ([9]; Homo sapiens, 72 h, read-out: The results of antibiotic drug inhibiting cancer cell lines (cell viability analysis), BCC): 92.5%
viability at 10 µM ([10]; 72 h, repeated experiment, read-out: The results of antibiotic drug inhibiting cancer cell lines (cell viability analysis), HeLa): 92.6%
viability at 10 µM ([10]; drug 10 μM, 72 hours, WST-1, OD450 nm, read-out: cell viability (survival rate), HeLa): 84%
viability at 10 µM ([11]; Homo sapiens, C-33-A, 72 h, read-out: The results of antibiotic drug inhibiting cancer cell lines (cell viability analysis), C-33A): 102%
viability at 10 µM ([12]; 72 h, PC-3, repeated experiment, read-out: The results of antibiotic drug inhibiting cancer cell lines (cell viability analysis), PC-3): 89.2%
viability at 10 µM ([12]; drug 10 μM, 72 hours, WST-1, OD450 nm, read-out: cell viability (survival rate), PC3): 50%
viability at 10 µM ([13]; 72 h, TSGH-8301, repeated experiment, read-out: The results of antibiotic drug inhibiting cancer cell lines (cell viability analysis), TSGH-8301): 103%
viability at 10 µM ([13]; drug 10 μM, 72 hours, WST-1, OD450 nm, read-out: cell viability (survival rate), TSGH): 50.2%
viability at 10 µM (T24; Homo sapiens, T-24, 72 h, read-out: The results of antibiotic drug inhibiting cancer cell lines (cell viability analysis), T24): 115%
viability at 10 µM ([14]; MCF7, 72 h, MCF-7, repeated experiment, read-out: The results of antibiotic drug inhibiting cancer cell lines (cell viability analysis), MCF-7): 76.4%
viability at 10 µM ([14]; MCF7, drug 10 μM, 72 hours, WST-1, OD450 nm, read-out: cell viability (survival rate), MCF7): 61.6%
viability at 10 µM ([15]; Homo sapiens, MDA-MB-231, 72 h, read-out: The results of antibiotic drug inhibiting cancer cell lines (cell viability analysis), MDA-MB231): 95.6%
viability at 10 µM (BxPC-3; Homo sapiens, BXPC-3, 72 h, read-out: The results of antibiotic drug inhibiting cancer cell lines (cell viability analysis), BxPC-3): 63.9%
viability at 10 µM (AsPC-1; Homo sapiens, ASPC1, 72 h, read-out: The results of antibiotic drug inhibiting cancer cell lines (cell viability analysis), AsPC-1): 69.3%
viability at 10 µM (NIH: OVCAR-3; Homo sapiens, OVCAR-3, 72 h, read-out: The results of antibiotic drug inhibiting cancer cell lines (cell viability analysis), NIH-OVCAR-3): 95.6%
viability at 10 µM (TOV-21G; Homo sapiens, TOV21G, 72 h, read-out: The results of antibiotic drug inhibiting cancer cell lines (cell viability analysis), TOV-21G): 81.6%
viability at 10 µM ([16]; Homo sapiens, 72 h, read-out: The results of antibiotic drug inhibiting cancer cell lines (cell viability analysis), SAS): 67.6%
viability at 10 µM (U-2OS; Homo sapiens, U2OS, 72 h, read-out: The results of antibiotic drug inhibiting cancer cell lines (cell viability analysis), U2OS): 63.4%
viability at 10 µM ([17]; Homo sapiens, 786-0, 72 h, read-out: The results of antibiotic drug inhibiting cancer cell lines (cell viability analysis), 786-O): 94.8%
viability at 10 µM [19]: 111%
viability [18]: 93.6%
